Where only a bound is given, the exact number is not on record here.

In general, IC50 refers to the concentration that gives 50% inhibition.

For one experiment, the target named is T1, human recombinant LPA2 expressed in CHO cells (Homo sapiens, UniProt Q9HBW0).
T1 construct: expressed in transfected cells; host or cells: CHO cells (CHO-hLPA2 cell line)
T1 sequence (Q9HBW0 whole entry): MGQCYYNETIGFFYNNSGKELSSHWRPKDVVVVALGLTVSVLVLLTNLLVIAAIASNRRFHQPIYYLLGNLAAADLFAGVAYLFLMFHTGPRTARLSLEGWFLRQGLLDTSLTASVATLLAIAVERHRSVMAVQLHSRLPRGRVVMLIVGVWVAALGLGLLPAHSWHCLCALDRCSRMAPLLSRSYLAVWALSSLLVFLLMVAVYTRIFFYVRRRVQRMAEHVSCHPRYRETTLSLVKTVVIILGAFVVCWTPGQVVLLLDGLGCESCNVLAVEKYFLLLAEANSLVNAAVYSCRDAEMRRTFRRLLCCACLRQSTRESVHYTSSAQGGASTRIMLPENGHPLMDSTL
Nature of the experiment: FLIPR calcium mobilization assay, LPA2 antagonism in CHO-hLPA2 cells. The class given is cell-based. Particulars: LPA EC80 stimulation, potency class, read-out: LPA2 IC50. As for the experimental part: The effectiveness of compounds of the present invention as LPA2 antagonist can be determined at the human recombinant LPA2 expressed in CHO cells, using a FLIPR assay in 384 well format.
CHO-hLPA2 cell lines are cultured in a humidified incubator at 5% CO2 in DMEM/F-12 (1:1) MIXTURE with 2 mM Glutamax, supplemented with 10% of Foetal Bovine Serum, 1 mM Sodium Pyruvate, 11 mM Hepes and 1× Penicillin/Streptomycin. CHO hLPA2 cells are seeded into black walled clear-bottom 384-well plates (#781091, Greiner Bio-One GmbH) at a density of 7,500 cells per well in 50 μl culture media and grown overnight in a 37° C. humidified CO2-incubator. Serial dilutions (1:3 or 1:4, 11 points CRC) of compounds are performed in 100% DMSO at 200× the final concentration. The compounds are diluted 1:50 prior to the experiment with Assay Buffer (20 mM HEPES, 145 mM NaCl, 5 mM KCl, 5.5 mM glucose, 1 mM MgCl2 and 2 mM CaCl2), pH 7.4 containing 0.01% Pluronic F-127) to obtain a solution corresponding to […] the final concentration in the assay (4×, 2% DMSO). The final concentration of DMSO in the assay will be 0.5% in each well. Medium is removed by aspiration and cells are then incubated with 30 μl of a loading solution containing 5 μM of the cytoplasmic Ca2+ indicator Cal-520 AM in Assay Buffer containing 2.5 mM probenecid for 30 min at 37° C. incubator (cell loading). The loaded cell plates are transferred into the FLIPR instrument and calcium responses are monitored during the on-line addition protocols. For testing of compounds, after the cell loading, 10 μl/well of 4× antagonists' solution was added onto the cells. After 30 min pre-incubation (at 37° C.), 10 μl/well of 5× concentrated LPA EC80 was added and Ca2+ mobilization responses was followed during the on-line addition protocol. Intracellular peak fluorescence values subtracted by baseline fluorescence are exported and analysed to determine IC50 values, respectively. The calcium response is expressed as percentage of the maximal inhibition of the EC80 agonist response.
The raw data obtained in unstimulated controls (DMSO, no LPA) are set as “100% inhibition”, while the raw data obtained in negative controls, i.e. in the absence of compounds and stimulating with LPA EC80, are set as “0% inhibition”.
The raw data (peak height expressed as relative fluorescence units) are normalized and transformed into “percent of inhibition”. Curve fitting and pIC50 (−Log IC50) estimations are carried out using a four-parameter logistic model using XLfit Software.
(Calcium assays in cells follow changes in intracellular calcium, usually with a dye or a luminescent sensor.)
`COC(=O)Nc1nc(C)c(S(=O)(=O)N2CCN(C[C@H](C)NC(=O)c3cccc(-c4sc(C)nc4C)c3)CC2)s1` [Example 1, methyl N-[5-({4-[(2S)-2-{[3-(2,4-dimethyl-1,3-thiazol-5-yl)phenyl]formamido}propyl]piperazin-1-yl}sulfonyl)-4-methyl-1,3-thiazol-2-yl]carbamate]: the 50% inhibitory concentration (IC50) is below 10 nM.

On to `Cc1cc(-c2ccc(S(=O)(=O)N3CCN(C[C@H](C)NC(=O)c4cc(-c5sc(C)nc5C)ccc4F)CC3)s2)on1` [Example 2, 5-(2,4-dimethyl-1,3-thiazol-5-yl)-2-fluoro-N-[(2 S)-1-(4-{[5-(3-methyl-1,2-oxazol-5-yl)thiophen-2-yl]sulfonyl}piperazin-1-yl)propan-2-yl]benzamide], for which the IC50 was 10 to 100 nM.

For `Cc1cc(-c2ccc(S(=O)(=O)N3CCN(C[C@H](C)NC(=O)c4cc(-c5sc(C)nc5C)ccn4)CC3)s2)on1` [Example 3, 4-(2,4-dimethyl-1,3-thiazol-5-yl)-N-[(2S)-1-(4-{[5-(3-methyl-1,2-oxazol-5-yl)thiophen-2-yl]sulfonyl}piperazin-1-yl)propan-2-yl]pyridine-2-carboxamide], the IC50 was in the range of 10 to 100 nM.

As for `COC(=O)Nc1nc(C)c(S(=O)(=O)N2CCN(C[C@H](C)NC(=O)c3cc(-c4sc(C)nc4C)ccn3)CC2)s1` [Example 4, methyl N-[5-({4-[(2S)-2-{[4-(2,4-dimethyl-1,3-thiazol-5-yl)pyridin-2-yl]formamido}propyl]piperazin-1-yl}sulfonyl)-4-methyl-1,3-thiazol-2-yl]carbamate], the IC50 is below 1000 nM.

On to `COC(=O)Nc1nc(C)c(S(=O)(=O)N2CCN(C[C@H](C)NC(=O)c3cc(-c4sc(C)nc4C)ccc3F)CC2)s1` [Example 5, methyl N-[5-({4-[(2S)-2-{[5-(2,4-dimethyl-1,3-thiazol-5-yl)-2-fluorophenyl]formamido}propyl]piperazin-1-yl}sulfonyl)-4-methyl-1,3-thiazol-2-yl]carbamate], for which the IC50 is 10 to 100 nM.

With `COC(=O)Nc1nc(C)c(S(=O)(=O)N2CCN(C[C@H](C)NC(=O)c3cccc(-c4sc(C)nc4C)n3)CC2)s1` [Example 6, methyl N-[5-({4-[(2S)-2-{[6-(2,4-dimethyl-1,3-thiazol-5-yl)pyridin-2-yl]formamido}propyl]piperazin-1-yl}sulfonyl)-4-methyl-1,3-thiazol-2-yl]carbamate], the IC50 was below 1000 nM.

Regarding `COC(=O)Nc1nc(C)c(S(=O)(=O)N2CCN(C[C@H](C)NC(=O)c3cccc(-c4cccc(CN(C)C)c4)c3)CC2)s1` [Example 7, methyl N-[5-({4-[(2S)-2-({3′-[(dimethylamino)methyl]-[1,1′-biphenyl]-3-yl}formamido)propyl]piperazin-1-yl}sulfonyl)-4-methyl-1,3-thiazol-2-yl]carbamate], the IC50 lay within 10 to 100 nM.

As to `COC(=O)Nc1nc(C)c(S(=O)(=O)N2CCN(C[C@H](C)NC(=O)c3cccc(-c4ccc(C)nc4)c3)CC2)s1` [Example 8, methyl N-[4-methyl-5-({4-[(2S)-2-{[3-(6-methylpyridin-3-yl)phenyl] formamido}propyl]piperazin-1-yl}sulfonyl)-1,3-thiazol-2-yl]carbamate], the IC50 was in the range of 10 to 100 nM.

Regarding `COC(=O)Nc1nc(C)c(S(=O)(=O)N2CCN(C[C@H](C)NC(=O)c3cccc(-c4cn(C)nc4C(F)(F)F)c3)CC2)s1` [Example 9, methyl N-[4-methyl-5-({4-[(2S)-2-({3-[1-methyl-3-(trifluoromethyl)-1H-pyrazol-4-yl]phenyl}formamido)propyl]piperazin-1-yl}sulfonyl)-1,3-thiazol-2-yl]carbamate], the IC50 was below 1000 nM.

As to `COC(=O)Nc1nc(C)c(S(=O)(=O)N2CCN(C[C@H](C)NC(=O)c3cc(-c4cccc(CN(C)C)c4)cs3)CC2)s1` [Example 10, methyl N-[5-({4-[(2S)-2-[(4-{3-[(dimethylamino)methyl]phenyl}thiophen-2-yl)formamido]propyl]piperazin-1-yl}sulfonyl)-4-methyl-1,3-thiazol-2-yl]carbamate], the IC50 is below 1000 nM.

Regarding `Cc1nc(C)c(-c2cccc(C(=O)N[C@@H](C)CN3CCN(S(=O)(=O)c4ccc5[nH]c(=O)sc5c4)CC3)c2)s1` [Example 11, 3-(2,4-dimethyl-1,3-thiazol-5-yl)-N-[(2S)-1-{4-[(2-oxo-2,3-dihydro-1,3-benzothiazol 6-yl)sulfonyl]piperazin-1-yl}propan-2-yl]benzamide], the IC50 is below 1000 nM.

The experiment is the same for the next values; noted with them: compound called inactive on receptor LPA2, read-out: IC50 on LPA2 receptor.
For the compound `COC(=O)Nc1nc(C)c(S(=O)(=O)N2CCN(C[C@H](C)Nc3ncnc4ncccc34)CC2)s1` [Comparative Example A, Methyl (S)-(4-methyl-5-((4-(2-(pyrido[2,3-d]pyrimidin-4 ylamino)propyl)piperazin-1-yl)sulfonyl)thiazol-2-yl)carbamate, reference compound], the IC50 is above 3000 nM.

The record behind these values is patent US20230043672A1, “AROMATIC AMIDO DERIVATIVES AS LPA RECEPTOR 2 INHIBITORS” (CHIESI FARMACEUTICI S.P.A., priority 2019, published 2023).
